Assay results taken from patent US20120295917A1, “IMATINIB DICHL[…] ANTI-CANCER AGENT COMPRISING THE SAME” (CELLTRION PHARM, INC., priority 2009, published 2012).

Key:
[1] = Hygroscopicity test (Karl-Fischer titrator); assay type: physicochemical; details: 40° C., relative humidity 75%
[2] = test system: colorectal adenocarcinoma cells (HT29); assay: Cytotoxicity test (MTT); assay type: cell-based; details: for absorbance value based on 100% of the absorbance value for the control: HT29, 72 hours, MTT, 570 nm, mean of n=3
Procedure: Using a medium containing 10% of fetal bovine serum (FBS), Rosewell Park Memorial Institute medium (RPMI) and 1% of penicillin/streptomycin, a 2×10^5 cells/ml suspension of colorectal adenocarcinoma cells (HT29) was prepared. The prepared suspension was seeded into each well of […] and cultured for 24 hours. Each sample was added to three wells and cultured (n=3).
The medium was removed from each well after 24 hours and the wells were washed with phosphate buffered saline (PBS). […] 100 µl of each prepared solution was seeded into the wells and cultured at 37° C. for 72 hours.
10 μl of 3-(4,5-dimethylthiazol-2-yl)-2,5-diphenyltetrazolium bromide (MTT) was added to each sample and cultured for 4 hours. The absorbance of the solution was measured at 570 nm using Enzyme-linked immunosorbent assay (ELISA).

[3] = accelerated condition for 28 days; in words
Procedure: Particularly, each imatinib acid addition salt was stored in a sealed state under an accelerated condition (a temperature of 40° C. and a relative humidity of 75%), and after 0 (zero), 3, 7, 14 and 28 days, the remaining rate of the active ingredient was analyzed with a high performance liquid chromatography (HPLC).

rats = details: cited from earlier work

Row | SMILES | amount of moisture contained in the compound ([1]; 2 hours) [weight %] | amount of moisture contained in the compound ([1]; 8 hours) [weight %] | amount of moisture contained in the compound ([1]; 24 hours) [weight %] | amount of moisture contained in the compound ([1]; 3 days) [weight %] | amount of moisture contained in the compound ([1]; Initial) [weight %] | anti-cancer effects compared with imatinib methanesulfonate (β crystalline form) ([2]; HT29 cytotoxicity, in words) | stability compared with imatinib methanesulfonate (β crystalline form) [3] | LD50 (the lethal dose causing death in 50% of rats on oral administration) (rats) | absorbance value based on 100% of the absorbance value for the control ([2]; 1 nM) [%] | absorbance value based on 100% of the absorbance value for the control ([2]; 10 nM) [%] | absorbance value based on 100% of the absorbance value for the control ([2]; 100 nM) [%]
1 | CS(=O)(=O)O.Cc1ccc(NC(=O)c2ccc(CN3CCN(C)CC3)cc2)cc1Nc1nccc(-c2cccnc2)n1 [Imatinib Methanesulfonate, reference compound] | 0.89 | 0.86 | 0.84 | 1.11 | 0.83 | – | – | – | – | – | –
2 | Cc1ccc(NC(=O)c2ccc(CN3CCN(C)CC3)cc2)cc1Nc1nccc(-c2cccnc2)n1 [Imatinib dichloroacetate (crystalline form I)] | 1.14 | 1.18 | 1.14 | 1.26 | 1.14 | more potent anti-cancer effects | same or higher level of stability | – | – | – | –
3 | Cc1ccc(NC(=O)c2ccc(CN3CCN(C)CC3)cc2)cc1Nc1nccc(-c2cccnc2)n1 [Imatinib dichloroacetate (crystalline form II)] | 0.83 | 0.87 | 0.86 | 0.95 | 0.85 | – | same or higher level of stability | – | – | – | –
4 | O=C(O)C(Cl)Cl [dichloroacetic acid] | – | – | – | – | – | – | – | 2,820 mg/kg | 101.2 | 98.6 | 95.2
